SMILES strings stand for the structures.

The nature of the series: gradient 5% acetonitrile 3 min, to 50% in 2 min, to 85% in 15 min, held 3 min, 100 µL/min. Conditions: column: Zorbax Extend-C18 2.1 x 50 mm; eluents: water / acetonitrile, 0.1% formic acid. The method in brief: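 Pure standards were run in mixtures of ~100 molecules by HPLC coupled to a quadrupole time-of-flight mass spectrometer. The column was a Zorbax Extend-C18 (2.1 × 50 mm, 1.8 μm) at 100 μL/min, with water and acetonitrile each containing 0.1% formic acid, in positive and negative ionization mode. Dead and dwell volumes were 40 μL and 900 μL. Retention time was taken from computationally picked adduct peaks, each manually inspected, with data collected over 3 months.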
Compound `O=C(Cn1nc2c3cc(-c4ccc(F)cc4)nn3ccn2c1=O)Nc1ccc(F)cc1` registered an RP-LC retention time of 888 s.

Consider `Cc1cccc(NC(=O)N(C)CCc2noc(COc3ccccc3)n2)c1`, for which the RP-LC retention time came out at 927 s. On to `O=C(NCc1ccccc1Cl)C1CCCN(C(=O)NC2CC2)C1` (stereo not given), for which the RP-LC retention time was found to be 652 s. As for `CCN(CC)CCNC(=O)C1c2ccccc2C(=O)N2CCc3cc(OC)c(OC)cc3C12` (stereo not given), the RP-LC retention time worked out at 599 s. Compound `CCCC(=O)N1CC(c2nc(-c3ccccc3)no2)C2(CCOCC2)C1` (stereo not given) displayed an RP-LC retention time of 850 s. `COc1ccc2c(c1)C1(CCN(S(=O)(=O)c3ccc(C#N)cc3)C1)C(=O)N2` (stereo not given) had an RP-LC retention time of 797 s.

Turning to `CCN(CC)Cc1nc(-c2ccc(N3CCSCC3)nc2)no1`, the RP-LC retention time turned out to be 632 s.

As to `Cc1cc(-c2nnc(C3CCC3)o2)c(C)n1CC(=O)Nc1ccccc1F`, the RP-LC retention time is 887 s. Consider `Cc1noc(C)c1C(=O)N1CCCC1Cc1noc(C2CCCC2)n1` (stereo not given), for which the RP-LC retention time turned out to be 820 s. The same measure for `O=C(CN1C(=O)CCC1=O)Nc1cccc(NC(=O)CN2C(=O)CCC2=O)c1`: 692 s.

The compound `Cc1ccc2oc(N3CCN(C(=O)c4cccc(-c5noc(C)n5)c4)CC3)nc2n1` displayed an RP-LC retention time of 623 s.

Turning to `O=C(NCc1cccs1)c1ccc(-n2nc(N3CCCC3)ccc2=O)cc1`, the RP-LC retention time was determined as 765 s.

`CCCN(C)CC1(O)CCC2(CCN(C(=O)c3ccsc3)CC2)CC1` displayed an RP-LC retention time of 590 s. Take `CCn1c(=O)c(N2CCC(C(=O)NCCc3c[nH]c4ccc(OC)cc34)CC2)nc2cccnc21`: the RP-LC retention time is 864 s.

`CCOC(=O)CNC(=O)N1CCN(c2nc3ccccc3n(Cc3ccccc3)c2=O)CC1` gave an RP-LC retention time of 867 s.

`Cc1nn(-c2ccccc2)c(C)c1S(=O)(=O)N1CCC(C(=O)Nc2ccccc2Cl)CC1`: the RP-LC retention time was found to be 995 s.

Regarding `Cn1cc(-c2cc3n(n2)CCC(=O)N3CCCC(=O)NCC2COCCO2)c2ccccc21` (stereo not given), the RP-LC retention time was determined as 680 s.

On to `O=C(NC1CCCCCCC1)C1CCCN(S(=O)(=O)c2c[nH]c(C(=O)N3CCCCCC3)c2)C1` (stereo not given), for which the RP-LC retention time is 980 s. As to `Cc1cccc(CNC(=O)c2sc(CC(=O)N3CCSCC3)nc2C)c1`, the RP-LC retention time was determined as 798 s. `Cc1ccc(-c2cc(C(=O)N3CCN(c4ccccn4)CC3)ccn2)s1` registered an RP-LC retention time of 639 s. The same measure for `COc1ccc(CC(=O)NCc2ccc3c(c2)ncn3C(C)C)cc1`: 600 s; for `Cc1cccc(-n2cc(C(=O)OCc3ccccn3)c3ccccc3c2=O)c1`: 932 s; for `COc1ccc(CCC(=O)N2CCC3(C2)C(=O)Nc2ccc(OC)cc23)cc1` (stereo not given): 751 s. `O=C(Cn1nc2c(cc1=O)CCCC2)Nc1nc(-c2ccc3c(c2)OCCCO3)cs1` returned an RP-LC retention time of 862 s. `Cc1nn(-c2cc(N3CCCC3)ncn2)c(C)c1CCC(=O)NCc1ccc2c(c1)OCO2` had an RP-LC retention time of 921 s.

In the case of `CCn1c(=O)c2ccnn2c2ccc(C(=O)NC3CCCC3)cc21`, the RP-LC retention time came to 587 s. Turning to `Cn1c(=O)c2c(ncn2CC(=O)N2CCC(C)(c3noc(C4CC4)n3)CC2)n(C)c1=O`, the RP-LC retention time was determined as 672 s. In the case of `O=C(Cc1ccccc1Br)N1CCN(Cc2nncn2C2CCCCC2)CC1`, the RP-LC retention time is 642 s.

For the compound `CCOc1ccc(S(=O)(=O)N2CCC(c3noc(-c4cccc(F)c4)n3)CC2)cc1`, the RP-LC retention time was 1190 s. With `COC(=O)C1C(c2ccccc2)=NN(c2ccccc2)C1C(=O)OC` (stereo not given), the RP-LC retention time was 1090 s. For the compound `CC1CCN(S(=O)(=O)N2CCC(C(=O)N3CCC(Cc4nncn4C(C)C)CC3)CC2)CC1`, the RP-LC retention time was 720 s.

Consider `COc1ccc(-c2noc(Cc3nnc(-c4ccc(F)cc4)o3)n2)cc1`, for which the RP-LC retention time was 972 s.

In the case of `CCN(CC)C(=O)C1CCCN(C(=O)c2nn(C)c3c2CN(C(=O)c2ccco2)CC3)C1` (stereo not given), the RP-LC retention time came out at 658 s. For `CCOc1ccccc1-c1noc(Cn2c(=O)n(CCCOC)c(=O)c3ccccc32)n1`, the RP-LC retention time stood at 1060 s.

In the case of `CCOc1ccc(-c2noc(Cn3c(=O)n(CC(C)C)c(=O)c4ccccc43)n2)cc1OC`, the RP-LC retention time stood at 1270 s. With `COC(=O)c1ccc(NC(=O)N2CCCC2c2cccc(F)c2)cc1` (stereo not given), the RP-LC retention time came out at 898 s.

Consider `O=C(NCCCn1ncccc1=O)c1coc(NC(=O)c2cnccn2)n1`, for which the RP-LC retention time worked out at 554 s. Compound `O=S(=O)(c1cccc2cccnc12)N1CCc2nc(-c3ccc(Cl)cc3)ncc2C1` displayed an RP-LC retention time of 1140 s.

On to `CN(C)c1cc(C(=O)NC2CCCC2)c2ccccc2n1`, for which the RP-LC retention time is 619 s. `CCCN1CCO[C@@H]2c3cc(O)ccc3OC[C@H]21` displayed an RP-LC retention time of 645 s. In turn, `CC(C)n1c(CCNC(=O)c2ccccc2Cl)nc2cccnc21` returned an RP-LC retention time of 651 s. Regarding `Cc1cc(O)c(C(C)C)cc1NC(=O)Nc1cccc2ccccc12`, the RP-LC retention time is 1190 s. For the compound `CCN(CC)S(=O)(=O)c1cc(-c2nnc(-c3ccc(OC)c(OC)c3)o2)ccc1C`, the RP-LC retention time turned out to be 991 s. As to `COc1ccc(C2CC(=O)N(c3ccccc3)C(=O)C2)cc1OC`, the RP-LC retention time is 860 s. Consider `CC(C)N1C(=O)C(C)(C(=O)NCc2cccc(Br)c2)Oc2cccnc21` (stereo not given), for which the RP-LC retention time was 1030 s. In the case of `O=C(Nc1ccc(F)cc1)C1CCN(S(=O)(=O)c2cc(C(=O)N3CCCCCC3)cs2)CC1`, the RP-LC retention time stood at 920 s. The compound `COc1ccc(C2(c3nc(-c4cccc(-c5ccnn5C)c4)no3)CC2)cc1` had an RP-LC retention time of 1150 s. Compound `CCSc1nnc(-c2nn(C)c3c2CN(C(=O)c2cc(C)ccc2C)CC3)n1C` came in with an RP-LC retention time of 811 s. The same measure for `c1ccc(Cc2nn3c(CSc4ccccc4)nnc3s2)cc1`: 927 s; for `OC(COc1ccc(Br)cc1Br)CN1CCCC1` (stereo not given): 576 s.

In turn, `CC(C)N1CC(CNC(=O)c2ccc(Cl)s2)C2(CCCCC2)C1` (stereo not given) returned an RP-LC retention time of 694 s. `Cc1nc2c(ccc3nc(NC(=O)NC4CCCC4)sc32)s1` had an RP-LC retention time of 785 s.

`COc1ccccc1NC(=O)C1CCCN(S(=O)(=O)c2cc(-c3noc(C)n3)cs2)C1` (stereo not given) yielded an RP-LC retention time of 964 s. The same measure for `COc1cccc(C2(C(N)=O)CC2)c1`: 688 s; for `CCN(CC)C(=O)c1ccc2c(c1)N(Cc1ccc(C)cc1)C(=O)CO2`: 588 s.

In turn, `Cc1ncoc1C(=O)N1CCOc2ccc(N(C)C)cc2C1` yielded an RP-LC retention time of 572 s.

`Cn1nc(C(=O)N2CCCC2)c2c1CCN(C(=O)CCC(=O)N1CCN(c3ccccn3)CC1)C2` yielded an RP-LC retention time of 579 s.

On to `Cn1cc(CN2CCC(C(=O)NC3CCCCCC3)CC2)c2cc(Cl)ccc21`, for which the RP-LC retention time turned out to be 751 s.

Take `Cc1ncc(C(=O)NC2CC2)c(=O)n1CC(=O)Nc1cc(F)ccc1F`: the RP-LC retention time is 705 s. In turn, `Cc1noc(COC2CCN(C(=O)c3ccccc3F)CC2)n1` had an RP-LC retention time of 818 s.

For the origin of these results see the METLIN SMRT retention time set (Domingo-Almenara et al. 2019).
